Test results as given in paper PMC13242721 (Angewandte Chemie (International ed. in English), 2024).
Starred links: 1 amine or outer side, 2 acyl side, 3 side chain; linkers in the order of their positions; H or OH if unused. Non-standard residues stand in square brackets, D forms with d. Residues, ends and D or L forms follow the SMILES beside them. *: point of attachment. Palmitoyl = CCCCCCCCCCCCCCCC(=O)*; AzaAla = CN(N[*:1])C(=O)[*:2]

How the values were obtained:
GLP-1R [1] = biological target: T1, GLP-1R (Homo sapiens, UniProt P43220); test: cAMP luciferase reporter assay, GLP-1R agonism; type: cell-based
T1 sequence (P43220 24-463): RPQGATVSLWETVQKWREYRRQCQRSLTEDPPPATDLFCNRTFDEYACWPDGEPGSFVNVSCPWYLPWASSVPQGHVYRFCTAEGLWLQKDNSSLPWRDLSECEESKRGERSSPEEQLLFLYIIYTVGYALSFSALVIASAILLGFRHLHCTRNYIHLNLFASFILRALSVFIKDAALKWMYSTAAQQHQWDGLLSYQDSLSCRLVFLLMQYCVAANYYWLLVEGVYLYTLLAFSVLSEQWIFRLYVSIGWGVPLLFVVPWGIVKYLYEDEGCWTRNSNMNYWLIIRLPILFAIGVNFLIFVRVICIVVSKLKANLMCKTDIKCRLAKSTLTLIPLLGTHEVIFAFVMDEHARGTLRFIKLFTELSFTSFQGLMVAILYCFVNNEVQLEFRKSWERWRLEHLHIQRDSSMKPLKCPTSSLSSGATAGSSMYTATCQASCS

GIPR = biological target: T2, GIPR (Homo sapiens, UniProt P48546); test: cAMP luciferase reporter assay, GIPR agonism; type: cell-based
T2 sequence (P48546 22-466): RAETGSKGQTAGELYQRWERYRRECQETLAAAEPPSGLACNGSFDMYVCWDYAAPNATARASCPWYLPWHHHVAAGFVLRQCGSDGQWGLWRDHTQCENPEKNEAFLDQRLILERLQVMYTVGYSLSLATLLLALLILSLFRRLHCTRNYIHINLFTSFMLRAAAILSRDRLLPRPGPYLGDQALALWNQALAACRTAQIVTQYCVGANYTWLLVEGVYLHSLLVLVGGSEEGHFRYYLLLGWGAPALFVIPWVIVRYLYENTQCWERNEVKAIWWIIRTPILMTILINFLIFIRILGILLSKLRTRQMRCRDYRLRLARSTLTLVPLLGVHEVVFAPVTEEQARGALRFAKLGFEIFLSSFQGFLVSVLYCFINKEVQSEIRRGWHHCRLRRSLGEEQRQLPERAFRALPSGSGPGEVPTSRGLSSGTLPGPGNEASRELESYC

GLP-1R [2] = biological target: T1, GLP-1R
GLP-1R [3] = biological target: T1, GLP-1R; conditions: alanine scanning of GLP-1; cited from earlier work

CCCCCCCCCCCCCCCC(=O)NCCCC[C@H](NC(=O)[C@H](CO)NC(=O)[C@@H]1CCCN1C(=O)[C@@H]1CCCN1C(=O)[C@@H]1CCCN1C(=O)[C@H](C)NC(=O)CNC(=O)[C@H](CO)NC(=O)[C@H](CO)NC(=O)[C@@H]1CCCN1C(=O)CNC(=O)CNC(=O)[C@H](C)NC(=O)[C@H](CC(C)C)NC(=O)[C@H](CC(C)C)NC(=O)[C@H](Cc1c[nH]c2ccccc12)NC(=O)[C@H](CC(N)=O)NC(=O)[C@@H](NC(=O)[C@H](Cc1ccccc1)NC(=O)[C@H](CCC(=O)O)NC(=O)[C@H](C)NC(=O)[C@H](C)NC(=O)[C@H](C)NC(=O)[C@H](CCC(N)=O)NC(=O)[C@H](CCCCN)NC(=O)[C@H](CC(=O)O)NC(=O)[C@H](CC(C)C)NC(=O)[C@H](Cc1ccc(O)cc1)NC(=O)[C@@H](NC(=O)[C@H](CO)NC(=O)[C@H](Cc1ccc(O)cc1)NC(=O)[C@H](CC(=O)O)NC(=O)[C@H](CO)NC(=O)[C@@H](NC(=O)[C@H](Cc1ccccc1)NC(=O)[C@@H](NC(=O)CNC(=O)[C@H](CCC(=O)O)NC(=O)N(C)NC(=O)[C@@H](N)Cc1ccc(O)cc1)[C@@H](C)O)[C@@H](C)O)[C@@H](C)CC)C(C)C)C(N)=O [DA X2AzaA, X20A] (H-Y[AzaAla]EGTFTSDYSIYLDKQAAAEFVNWLLAGGPSSGAPPPSK(Palmitoyl)-NH2; N-terminus and C-terminus assumed)
efficacy compared to native ligand (in words) (GLP-1R [1]): equiefficacious
EC50 (GIPR): 2.51 pM
efficacy compared to native ligand (in words) (GIPR; GIPR, cAMP luciferase reporter assay): equiefficacious
Fold-Shift (↓) = (EC50 with DPP4)/(EC50 without DPP4) (GLP-1R [2]): 1.0

Glu9Ala variant: literature alanine-scan variant of GLP-1 (HDEFERHAAGTFTSDVSSYLEGQAAKEFIAWLVKGRG; Glucagon-like peptide 1; UniProt P01275 92-128, looked up, variant E9A)
adenylyl cyclase activity (in words) (GLP-1R [3]): equivalent adenylyl cyclase activity
